The text below walks through data of patent publication US20260070922A1, “PYRAZOLE AND IMIDAZOLE DERIVATIVES AS DUAL OREXIN AND KAPPA-OPIOID RECEPTORS MODULATORS COMPOSITION, METHODS FOR TREATING NEUROLOGICAL AND PSYCHIATRIC DISORDERS” (HAGER BIOSCIENCES, LLC, priority 2022, published 2026).

The IC50 is the midpoint of a concentration-inhibition curve. One may read the Kb as the equilibrium dissociation constant of an antagonist, usually derived from a functional assay.

In assay [1] the target is T1, Orexin type 1 (OX1R) receptor (Homo sapiens, UniProt O43613).
T1 construct: expressed in transfected cells; host or cells: CHO cells (G418 selection)
T1 sequence (O43613 1-425): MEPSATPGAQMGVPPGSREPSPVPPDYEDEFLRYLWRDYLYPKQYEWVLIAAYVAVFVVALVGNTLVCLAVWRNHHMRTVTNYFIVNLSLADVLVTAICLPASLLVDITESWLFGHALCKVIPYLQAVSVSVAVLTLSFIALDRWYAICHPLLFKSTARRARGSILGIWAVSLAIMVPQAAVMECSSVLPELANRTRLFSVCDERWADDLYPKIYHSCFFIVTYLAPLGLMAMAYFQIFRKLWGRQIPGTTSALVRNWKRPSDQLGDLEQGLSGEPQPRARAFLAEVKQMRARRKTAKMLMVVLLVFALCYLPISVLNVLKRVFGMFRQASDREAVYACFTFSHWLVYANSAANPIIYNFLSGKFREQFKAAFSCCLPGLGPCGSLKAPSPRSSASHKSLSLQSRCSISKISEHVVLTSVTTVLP
Kind of assay: In vitro orexin antagonism assay: intracellular calcium measurement (FLIPR), orexin-A 3 nM as agonist. Format: cell-based. Particulars: for IC50: first value of IC50/Kb cell; for inhibition at 1 µM: read-out: OX1R, % Inh. @ 1 uM; for Kb: second value of IC50/Kb cell. The method in brief:
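CHO cells expressing the human orexin receptor were loaded with 3 μM fluo-4 AM plus 5 mM probenecid, then exposed to antagonist for 120 min before 3 nM orexin-A (final) was added on a FLIPR.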

For assay [2], the target named is T2, human orexin-2 receptor (OX2R) (Homo sapiens, UniProt O43614).
T2 construct: expressed in transfected cells; host or cells: CHO cells (G418 selection)
T2 sequence (O43614 1-444): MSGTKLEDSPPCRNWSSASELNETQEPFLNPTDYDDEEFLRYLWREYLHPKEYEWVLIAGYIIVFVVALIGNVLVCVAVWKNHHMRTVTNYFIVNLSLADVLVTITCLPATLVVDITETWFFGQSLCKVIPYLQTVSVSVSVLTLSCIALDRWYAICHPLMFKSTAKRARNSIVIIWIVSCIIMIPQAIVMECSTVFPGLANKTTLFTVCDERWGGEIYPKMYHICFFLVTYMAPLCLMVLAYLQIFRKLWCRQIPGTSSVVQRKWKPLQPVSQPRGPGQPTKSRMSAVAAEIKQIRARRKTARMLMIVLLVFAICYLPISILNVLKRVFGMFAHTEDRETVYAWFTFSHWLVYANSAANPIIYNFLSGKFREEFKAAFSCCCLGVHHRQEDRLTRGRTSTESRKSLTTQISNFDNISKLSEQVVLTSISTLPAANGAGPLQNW
The assay is described as above. The class given is cell-based. Particulars: for inhibition at 1 µM: read-out: OX2R, % Inh. @ 1 uM; for IC50: first value of IC50/Kb cell; for Kb: second value of IC50/Kb cell. The essentials: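 Fluorescence peak on 3 nM orexin-A challenge, read by FLIPR and compared with vehicle, yields IC50 (geometric mean when repeated; may be normalized to an on-plate reference). Antagonists were added 120 min beforehand to fluo-4-loaded recombinant CHO cells expressing human OX1R or OX2R.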

In assay [3] the target is T3, human k-opioid receptor (kOR) (Homo sapiens, UniProt P41145).
T3 construct: expressed in transfected cells; host or cells: RBL cells (membrane homogenates)
T3 sequence (P41145 whole entry): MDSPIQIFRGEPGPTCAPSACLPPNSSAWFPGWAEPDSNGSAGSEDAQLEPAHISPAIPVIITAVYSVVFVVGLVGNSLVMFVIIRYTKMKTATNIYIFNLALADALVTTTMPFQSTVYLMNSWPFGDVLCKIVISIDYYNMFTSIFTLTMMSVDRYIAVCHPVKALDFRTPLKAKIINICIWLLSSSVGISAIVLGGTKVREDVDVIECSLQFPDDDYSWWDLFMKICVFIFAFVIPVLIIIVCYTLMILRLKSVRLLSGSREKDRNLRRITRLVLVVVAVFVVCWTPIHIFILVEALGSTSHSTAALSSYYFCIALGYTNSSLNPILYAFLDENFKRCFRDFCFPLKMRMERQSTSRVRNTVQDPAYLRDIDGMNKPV
Kind of assay: Human k-opioid (KOP) receptor (agonist radioligand [3H]U-69593) binding assay, transfected RBL cell membranes. The note with it: read-out: KOR % Inh. @ 1 uM. The procedure:
Human k-Opioid (KOP) Receptor (Agonist Radioligand) Binding Assay
Purpose: Evaluation of the affinity of compounds for the human k-opioid receptor in transfected RBL cells determined in a radioligand binding assay.
Experimental protocol: Cell membrane homogenates (about 80 μg protein) are incubated for 60 min at 22° C. with 0.5 nM [3H]U-69593 in the absence or presence of the test compound in a buffer containing 50 mM Tris-HCl (pH 7.4), 10 mM MgCl2 and 1 mM EDTA. Nonspecific binding is determined in the presence of 10 μM naloxone. Following incubation, the samples are filtered rapidly under vacuum through glass fiber filters ([…], Packard) presoaked with 0.3% PEI and rinsed several times with ice-cold 50 mM Tris-HCl using a 96-sample cell harvester (Unifilter, Packard). The filters are dried then counted for radioactivity in a scintillation counter (Topcount, Packard) using a scintillation cocktail (Microscint 0, Packard). The results are expressed as a percent inhibition of the control radioligand specific binding. The standard reference compound is U-50488, which is tested in each experiment at several concentrations to obtain a competition curve from which its IC50 is calculated.

`O=C(c1nn2c(c1-c1ccccc1)COCC2)N1CCC[C@H]1Cn1ccc(-c2ccccn2)n1` [Example 134]: in assay [1], the 50% inhibitory concentration (IC50) stood at 12 nM, the inhibition at 1 µM came out at 100% and the antagonist equilibrium constant (Kb) is 3 nM. Also, in assay [2], the inhibition at 1 µM came to 44%. Moreover, the inhibition at 1 µM in assay [3] is 0%.

Consider `O=C(c1nn2c(c1-c1ccccc1)OCCC2)N1CCC[C@H]1Cn1ccc(-c2ccccn2)n1` [Example 135], for which, in assay [1], the IC50 stood at 4 nM, the inhibition at 1 µM was determined as 100% and the Kb was determined as 1 nM. For the same compound, in assay [2], the IC50 came to 660 nM, the inhibition at 1 µM was 71% and the Kb stood at 110 nM. The inhibition at 1 µM in assay [3] was 22%.

As to `O=C(c1nn2cccnc2c1-c1ccccc1)N1CCC[C@H]1Cn1ccc(-c2ccccc2)n1` [Example 136], in assay [1], the 50% inhibitory concentration (IC50) came out at 9 nM, the inhibition at 1 µM amounted to 99% and the Kb was 1 nM. Moreover, in assay [2], the 50% inhibitory concentration (IC50) came out at 3 nM, the inhibition at 1 µM came out at 74% and the Kb was 0.5 nM. Also, in assay [3], the inhibition at 1 µM was 26%.

As for `O=C(c1nn2cccnc2c1-c1ccccc1)N1CCC[C@H]1Cn1ccc(-c2ccccn2)n1` [Example 137], the results for the IC50 in assay [1] and in assay [2] were 5 nM and 490 nM, respectively. The inhibition at 1 µM in assay [1] came to 99%; in assay [2] it was 52%; in assay [3] it was 9%. For the same compound, the results for the Kb in assay [1] and in assay [2] were 1 nM and 85 nM, respectively.

Consider `O=C(c1c(-c2ncccn2)nn2ccccc12)N1CCC[C@H]1Cn1ccc(-c2ccccn2)n1` [Example 138], for which the IC50 in assay [1] turned out to be 9 nM; in assay [2], 490 nM. The inhibition at 1 µM turned out to be 100% in assay [1], 62% in assay [2] and 0% in assay [3]. The Kb was found to be 2 nM in assay [1] and 84 nM in assay [2].

Turning to `O=C(c1c(-c2ccccn2)nn2ccccc12)N1CCC[C@H]1Cn1ccc(-c2ccccn2)n1` [Example 139], in assay [1], the half-maximal inhibitory concentration (IC50) amounted to 8 nM, the inhibition at 1 µM turned out to be 100% and the antagonist equilibrium constant (Kb) was found to be 2 nM. Further, in assay [2], the IC50 is 63 nM, the inhibition at 1 µM worked out at 82% and the Kb was determined as 11 nM. Besides, in assay [3], the inhibition at 1 µM worked out at 0%.

Consider `O=C(c1c(-c2ccccc2)nn2cccnc12)N1CCC[C@H]1Cn1ccc(-c2ccccn2)n1` [Example 140], for which the IC50 stood at 4 nM in assay [1] and 190 nM in assay [2]. Moreover, the inhibition at 1 µM came out at 100% in assay [1], 59% in assay [2] and 14% in assay [3]. For the same compound, the antagonist equilibrium constant (Kb) in assay [1] amounted to 1 nM; in assay [2], 32 nM.

Take `O=C(c1nn2c(c1-c1ccccc1)COCC2)N1CCC[C@H]1COc1ccc(C(F)(F)F)cn1` [Example 141]: in assay [1], the IC50 stood at 5 nM, the inhibition at 1 µM was 100% and the Kb is 1 nM. Moreover, the inhibition at 1 µM in assay [2] turned out to be 33%. In addition, the inhibition at 1 µM in assay [3] turned out to be 40%.

Take `C[C@@]1(COc2ccc(C(F)(F)F)cn2)CCCN1C(=O)c1nn2ccccc2c1-c1ccccc1` [Example 143]: in assay [1], the IC50 came out at 210 nM, the inhibition at 1 µM was determined as 98% and the antagonist equilibrium constant (Kb) is 45 nM. Besides, the inhibition at 1 µM in assay [2] was determined as 31%. Further, in assay [3], the inhibition at 1 µM came out at 3%.

As to `C[C@@]1(COc2ccc(C(F)(F)F)cn2)CCCN1C(=O)c1nc2ccccn2c1-c1ccccc1` [Example 144], in assay [1], the half-inhibitory concentration (IC50) is 250 nM, the inhibition at 1 µM amounted to 98% and the Kb came out at 53 nM. Also, in assay [2], the inhibition at 1 µM was found to be 13%. For the same compound, in assay [3], the inhibition at 1 µM came out at 4%.

For the compound `C[C@@]1(COc2ccc(C(F)(F)F)cn2)CCCN1C(=O)c1nn2c(c1-c1ccccc1)COCC2` [Example 145], the IC50 in assay [1] worked out at 270 nM. Also, the inhibition at 1 µM stood at 96% in assay [1], 5% in assay [2] and 12% in assay [3]. The Kb in assay [1] was found to be 56 nM.

Take `C[C@@]1(COc2ccc(C(F)(F)F)cn2)CCCN1C(=O)c1nn2cccnc2c1-c1ccccc1` [Example 146]: in assay [1], the IC50 came to 350 nM, the inhibition at 1 µM stood at 99% and the Kb is 74 nM. Also, in assay [2], the inhibition at 1 µM came out at 27%. The inhibition at 1 µM in assay [3] turned out to be 0%.

`C[C@@]1(COc2ccc(C(F)(F)F)cn2)CCCN1C(=O)c1c(-c2ccccn2)nn2ccccc12` [Example 147]: the 50% inhibitory concentration (IC50) in assay [1] was determined as 43 nM. For the same compound, the inhibition at 1 µM in assay [1] is 100%; in assay [2] it was 25%; in assay [3] it was 2%. For the same compound, in assay [1], the antagonist dissociation constant (Kb) came out at 9 nM.

As to `C[C@@]1(COc2ccc(C(F)(F)F)cn2)CCCN1C(=O)c1c(-c2ncccn2)nn2ccccc12` [Example 148], in assay [1], the half-inhibitory concentration (IC50) came out at 120 nM, the inhibition at 1 µM turned out to be 98% and the Kb was found to be 26 nM. Besides, in assay [2], the inhibition at 1 µM came out at 19%. In assay [3], the inhibition at 1 µM stood at 8%.

On to `C[C@@]1(Cn2ccc(-c3ccccn3)n2)CCCN1C(=O)c1nc2ccccn2c1-c1ccccc1` [Example 149], for which, in assay [1], the 50% inhibitory concentration (IC50) was 570 nM, the inhibition at 1 µM was 89% and the antagonist dissociation constant (Kb) is 120 nM. The inhibition at 1 µM in assay [2] was found to be 13%. Further, the inhibition at 1 µM in assay [3] worked out at 28%.

Take `C[C@@]1(Cn2ccc(-c3ccccn3)n2)CCCN1C(=O)c1nn2ccccc2c1-c1ccccc1` [Example 150]: the IC50 in assay [1] came out at 340 nM. Further, the inhibition at 1 µM in assay [1] came to 97%; in assay [2] it was 11%; in assay [3], 16%. In assay [1], the antagonist equilibrium constant (Kb) was found to be 72 nM.

For the compound `C[C@@]1(COc2ccc(C(F)(F)F)cn2)CCCN1C(=O)c1c(-c2ccccc2)nn2ccccc12` [Example 151], the IC50 in assay [1] came to 90 nM. In addition, the inhibition at 1 µM in assay [1] is 99%; in assay [2], 34%; in assay [3], 7%. Also, in assay [1], the Kb is 19 nM.

Regarding `O=C(c1nn2c(c1-c1ccccc1)COCC2)N1[C@@H]2CC[C@@H](C2)[C@H]1COc1ccc(C(F)(F)F)cn1` [Example 152], in assay [1], the IC50 came to 2400 nM. The inhibition at 1 µM came to 58% in assay [1], 16% in assay [2] and 3% in assay [3]. Besides, in assay [1], the Kb is 510 nM.

On to `O=C(c1c(-c2ncccn2)nn2ccccc12)N1[C@@H]2CC[C@@H](C2)[C@H]1COc1ccc(C(F)(F)F)cn1` [Example 153], for which, in assay [1], the half-inhibitory concentration (IC50) is 190 nM, the inhibition at 1 µM was 90% and the Kb amounted to 40 nM. Moreover, the inhibition at 1 µM in assay [2] came to 35%. For the same compound, the inhibition at 1 µM in assay [3] was 0%.

With `C[C@@]1(Cn2ccc(-c3ccccn3)n2)CCCN1C(=O)c1nn2c(c1-c1ccccc1)COCC2` [Example 154], the half-inhibitory concentration (IC50) in assay [1] worked out at 520 nM. In addition, the inhibition at 1 µM in assay [1] was determined as 83%; in assay [2] it was 5%; in assay [3] it was 23%. For the same compound, the Kb in assay [1] stood at 110 nM.

On to `O=C(c1c(-c2ncccn2)nn2ccccc12)N1CCC[C@H]1Cc1nc(-c2ccccn2)no1` [Example 155], for which the 50% inhibitory concentration (IC50) in assay [1] came out at 410 nM. Also, the figures for the inhibition at 1 µM in assay [1], in assay [2] and in assay [3] were 69%, 25% and 12%, respectively. Further, the antagonist dissociation constant (Kb) in assay [1] came to 87 nM.
